No end group written: not given here.
Assays:
Assay in all cases: Cell viability assay (MTT)
Beas-2B cells = test system: Beas-2B cells
Description: Beas-2B cells were grown in serum-free medium in the presence of ECP^32–41 at indicated concentrations for 24 h. (A) The cytotoxic effect of ECP^32–41 was measured by MTT assay. The cell viability of untreated cells was set to 100%. Cells treated with 0.1% Triton X-100 was used as a positive control. (B) The membrane disruption by ECP^32–41 was measured by LDH assay. LDH released from cells lysed with 0.1% Triton X-100 in medium was defined as 100% leakage and LDH released from untreated cells was set as 0% leakage.
Beas-2B cells were incubated with 10 µM eGFP or eGFP-ECP^32–41 at 37°C for 1 h. The cells were then washed with 500 µl PBS, trypsinized at 37°C for 15 min, suspended in 500 µl PBS, and subjected to flow cytometry. (B) Beas-2B cells were treated with the indicated concentrations of TAT^47–57, ECP^32–41, KLA, KLA-TAT^47–57 or KLA-ECP^32–41 at 37°C for 24 h, and their cytotoxic effects were determined by the MTT assay. Cytotoxic effects of (C) KLA-TAT^47–57 and (D) KLA-ECP^32–41, at the indicated concentrations, on Beas-2B, A549, Caco-2, and AGS cells were assessed by the MTT assay after incubation at 37°C for 24 h. The cell viability untreated cells was set to 100%. The result is expressed as the mean ± S.D., n = 3.
The effects of the peptides on cell viability were determined colourimetrically using 3-(4,5-dimethylthiazol-2-yl)-2,5-diphenyltetrazolium bromide (MTT) (US Biological). Cells (1.0×10^4/well) were seeded into the wells of 96-well plates and incubated overnight. Cell samples were then exposed to different concentrations of TAT^47–57, ECP^32–41, KLA, KLA-TAT^47–57 or KLA-ECP^32–41. After 24 h, 100 µl of 0.5 mg/ml MTT in medium was added into each well, and the cells were incubated at 37°C for 3 h. The incubation medium was removed, and the remaining purple crystal formazan was dissolved in dimethylsulphoxide. Cells treated with 0.1% Triton X-100 was used as a positive control for cell viability. A540 values were measured using a multiwall plate reader (Molecular Devices).

AGS cells = format: cell-based, human; conditions: 24 h
Text: (§1) The cell viability untreated cells was set to 100%.

Caco-2 cells = format: cell-based, human; conditions: 24 h
Text: as §1

For `N=C(N)NCCC[C@H](NC(=O)CN)C(=O)N[C@@H](CCCCN)C(=O)N[C@@H](CCCCN)C(=O)N[C@@H](CCCNC(=N)N)C(=O)N[C@@H](CCCNC(=N)N)C(=O)N[C@@H](CCC(N)=O)C(=O)N[C@@H](CCCNC(=N)N)C(=O)N[C@@H](CCCNC(=N)N)C(=O)N[C@@H](CCCNC(=N)N)C(=O)N1CCC[C@H]1C(=O)O` [TAT^47–57], the “cell viability (MTT) at 100 µM” value (Beas-2B cells; Beas-2B, 100 µM peptide, 37°C, 24 h, n = 3) was “neither peptide affected cell viability”.
KLAKLAKKLAKLAK was tested, and the “cytotoxicity (MTT)” value (Beas-2B cells) was “not cytotoxic”.
In the case of “KLAKLAKKLAKLAKNYRWRCKNQN [KLA-ECP^32–41]”, the “EC50 fold higher than that of KLA-TAT47–57” value (AGS cells) is reported as 2.42 fold and the “EC50 fold higher than that of KLA-TAT47–57” value (Caco-2 cells) is reported as 1.6 fold.
